Converted amounts (≈) assume the structure as drawn. Where two headings read alike, the source gives them in different places.
Tests used:
[1] = system: tetracycline resistant E. coli; format: cell-based, Escherichia coli; conditions: for MIC: single agent, Table 5; for MIC (μM) of amphiphile alone: tetracycline resistant E. coli, Tables 6 and 7
From the text: (§1) Certain aspects are drawn to a method for increasing or enhancing the antimicrobial activity of an antimicrobial agent. As used herein, the “antimicrobial activity” of an antimicrobial agent is defined as the property of a substance to inhibit the growth and reproduction of a microbial organism or to kill it. Common terms generally applied to bacteria are bacteriostatic (stops growth) and bactericidal (kills bacteria). Depending on the concentrations applied, microbial growth can be slowed or stopped in comparison to concurrent experiments conducted in the absence of an antimicrobial agent. Depending on the concentrations applied, additional microbe death can occur in comparison to concurrent experiments conducted in the absence of an antimicrobial agent. […] The MIC is the lowest concentration of any agent having antimicrobial activity that inhibits the growth of a microorganism as judged by visual inspection. MIC can be determined by inoculating media with the organism and adding the antimicrobial agent diluted successively in half.
(§2) Among the organisms studied are several strains of the bacterium E. coli.
N,N′-Dibenzyl-4,13-diaza-18-crown-6 is referred to in the table as dibenzyldiaza-18-crown-6.
(§3) Minimal Inhibitory Concentration (MIC) Procedure. […] Prepare initial concentration of all the compounds required. • 5. […] Vortex each test tube for 2-3 seconds. • 11.

[2] = cited from earlier work
[3] = system: E. coli; conditions: Journal of the American Chemical Society 2002, 124, 9022-3, cited from earlier work
[4] = system: DH5α E. coli; experiment: MIC of single agents against DH5α E. coli; format: cell-based, Escherichia coli
From the text: as §1, §2, §3

[5] = system: DH5α E. coli; experiment: Combination of lariat ether and antibiotic against DH5α E. coli; conditions: 0.4 vol-% DMSO
Procedure: The volume of water added was between 12 to 0.5 μL. The volume of water added was not constant but the volume of media was changed so that the total volume was kept constant at 2 mL.
(§6) Steps 1-7, described in the MIC procedure, shown in Example 2, were followed. • 2. While the E. coli grew, the appropriate volume of compound was added to each test tube. • 3. Antibiotics were added at the required volume of solution to obtain the desired concentration in each test tube. […] Each test tube was vortexed for 2-3 seconds. • 5. Steps 10-12 from the MIC procedure, shown in Example 2, were then executed.

[6] = system: K-12 E. coli; experiment: Combination of amphiphile and antibiotic against K-12 E. coli
Procedure: as §6

[7] = system: B. stubtilis; experiment: MIC determination, B. subtilis (Table 1); format: cell-based, Bacillus subtilis; conditions: single agent
From the text: (§4) Certain aspects are drawn to a method for increasing or enhancing the antimicrobial activity of an antimicrobial agent. As used herein, the “antimicrobial activity” of an antimicrobial agent is defined as the property of a substance to inhibit the growth and reproduction of a microbial organism or to kill it. Common terms generally applied to bacteria are bacteriostatic (stops growth) and bactericidal (kills bacteria). Depending on the concentrations applied, microbial growth can be slowed or stopped in comparison to concurrent experiments conducted in the absence of an antimicrobial agent. Depending on the concentrations applied, additional microbe death can occur in comparison to concurrent experiments conducted in the absence of an antimicrobial agent. The results of minimum inhibitory concentration (MIC) evaluations and growth curves are presented herein and the conditions are specified. The MIC is the lowest concentration of any agent having antimicrobial activity that inhibits the growth of a microorganism as judged by visual inspection. MIC can be determined by inoculating media with the organism and adding the antimicrobial agent diluted successively in half. […] Reference herein to increasing or enhancing activity, efficacy, potency, and the like are used interchangeably to mean that when the synthetic amphiphile is present, the ability of the antimicrobial agent to inhibit the growth of or to kill an organism will be manifested at a concentration lower than would be required to achieve the same results in the absence of said synthetic amphiphile.
(§5) Among the organisms studied are several strains of the bacterium E. coli. […] Experiments were conducted to determine the MIC values for the synthetic amphiphiles known as lariat ethers according to the procedures described in Antimicrobial M07-A9: Methods for Dilution Antimicrobial Susceptibility Tests for Bacteria that Grow Aerobically; Clinical and Laboratory Standards Institute, 2012; Vol. 32, 67 pp. MIC values so determined for several lariat ethers and for several antibiotics are shown in Table 1.

[8] = system: tetracycline resistant E. coli
Procedure: • 1. Steps 1-7, described in the MIC procedure, shown in Example 2, were followed. • 2. While the E. coli grew, the appropriate volume of compound was added to each test tube. • 3. Antibiotics were added at the required volume of solution to obtain the desired concentration in each test tube. […] Each test tube was vortexed for 2-3 seconds. • 5. Steps 10-12 from the MIC procedure, shown in Example 2, were then executed.

[9] = system: DH5α E. coli; experiment: Inhibitory concentration (IC50) to DH5α E. coli cells (FIG. 4); format: cell-based, Escherichia coli; conditions: DH5α E. coli, FIG. 4
From the text: Two commonly used abbreviations are LD50 and IC50. The former is the concentration of an agent that comprises a lethal dose to 50% of the organism under study. The latter is the concentration of agent that inhibits growth of 50% of the organism under study. […] The abscissa represents the number of (CH2) groups in spacer chains. The ordinate is logarithmic and reflects the concentrations (in μM) of the various lariat ethers used.

[10] = system: K-12 E. coli; experiment: MIC of single agents against K-12 E. coli
[11] = system: S. cerevisiae; experiment: MIC determination, S. cerevisiae (Table 1); format: cell-based, Saccharomyces cerevisiae; conditions: single agent
From the text: as §4, §5

[12] = system: E. coli; experiment: MIC determination, E. coli (Table 1); format: cell-based, Escherichia coli; conditions: single agent
From the text: as §1, §2, §3

[13] = system: HEK-293 cells; experiment: MTT assay of toxicity to HEK-293 cells
Procedure: The toxicity of C6. C8, C10. C11 and C14 lariat ethers to HEK-293 cells was determined by using an MTT assay. […] The abscissa is a logarithmic scale for the concentrations ranging from 1 μM to 1000 μM (1 mM) used in the experiment. The ordinate represents percent survival of HEK-293 cells.
Growth medium containing DMEM with high glucose (ATCC). 10% fetal bovine serum (FBS: Sigma-Aldrich) and 10 μg/mL of blasticidin (Thermo-Fischer) was prepared. HEK 293 cells were thawed out from cryo-preserved samples in 10 mL growth media, centrifuged at 500 rpm for 10 minutes to remove preservative. The cells were then resuspended in fresh growth medium and cultured using a T-75 flask (Thermo-Fischer) at 37° C. and 5% CO2. Cells were monitored for confluence and growth medium was replaced every 48 h, until cells were placed onto a 96-well plate for toxicity studies.
After reaching 80-90% confluence, cells were trypsinized and suspended in media containing DMEM and 10% FBS (no antibiotics). The cells were counted on a hemacytometer and plated at a density of 20,000 cells per well in a 96-well plate and grown for 24 hours to reach 60-70% confluence. DMSO stocks of C6, C8, C10, C11 and C14 diaza-18-crown-6 lariat ethers were prepared at […] and diluted 1:10 to get working concentrations of 20 mM, 2 mM, and 0.2 mM. Each stock was further diluted […] into DMEM supplemented with 10% FBS to get final concentrations of 1 mM, 0.1 mM, 0.01 mM (10 μM) and 0.001 mM (1 μM). The original media was then removed from the cells and replaced with 200 μL media containing the desired concentration of compound. Three wells were used for each concentration providing experimental triplicates. […] The absorbance was measured at 570 nm and nonspecific absorbance was corrected at 650 nm, using SpectraMax340 micro plate reader.
The experiment was performed in triplicate and the average of percent survival of three experiments was determined. […] The lethal dose 50 (LD50) for each compound was calculated by using the equation for a logarithmic regression curve.

For `c1ccc(CN2CCOCCOCCN(CCCCCCCCCCN3CCOCCOCCN(CCCCCCCCCCN4CCOCCOCCN(Cc5ccccc5)CCOCCOCC4)CCOCCOCC3)CCOCCOCC2)cc1`, the “MIC” value [1] is listed as 35 ± 5 µM (≈ 43.5 µg/mL), the “MIC (μM) of amphiphile alone” value [1] is listed as 35 µM and the “cation transport in liposome membranes” value ([2]; thickest DEPC membranes) is listed as “nearly inactive”.
In the case of `c1ccc(CN2CCOCCOCCN(CCCCCCCCN3CCOCCOCCN(CCCCCCCCN4CCOCCOCCN(Cc5ccccc5)CCOCCOCC4)CCOCCOCC3)CCOCCOCC2)cc1` [C8 hydraphile], the “MIC” value [1] is given as 250 ± 10 µM (≈ 297 µg/mL), the “MIC (μM) of amphiphile alone” value [1] is given as 250 µM and the “toxicity to E. coli” value ([3]; listed as C8 benzyl hydraphile) is given as “did not”. For the same compound, the “toxicity to E. coli” value ([3]; listed as hydraphile having —(CH2)8— spacers) was “did not exhibit toxicity” and the “cation transport in liposome membranes” value ([2]; DMPC, DOPC, or DEPC membranes) was “failed to transport”.
For `CCCCCCCCCCCN1CCOCCOCCN(CCCCCCCCCCC)CCOCCOCC1` [C11 lariat ether, N,N′-di-n-undecyl-4,13-diaza-18-crown-6], the “MIC (μM) of lariat ether alone” value ([4]; DH5α E. coli, Tables 2 and 3) was 24 µM, the “MIC to DH5α E. coli” value ([4]; single agent, values of the running text) was 24 µM and the “Fold Enhancement” value ([5]; rifampicin with 8 μM n-C11 lariat ether) was 4 fold. The “Fold Enhancement” value ([5]; rifampicin with 12 μM n-C11 lariat ether) was 10 fold, the “Fold Enhancement” value ([5]; rifampicin with 16 μM n-C11 lariat ether) was 10 fold and the “Fold Enhancement” value ([5]; rifampicin with 18 μM n-C11 lariat ether) was 20 fold. The “Fold Enhancement” value ([5]; tetracycline with 4 μM n-C11 lariat ether) was 4 fold, the “Fold Enhancement” value ([5]; tetracycline with 12 μM n-C11 lariat ether) was 12 fold and the “Fold Enhancement” value ([5]; tetracycline with 16 μM n-C11 lariat ether) was 48 fold. For the same compound, the “Fold Enhancement” value ([5]; tetracycline with 18 μM n-C11 lariat ether) was 8 fold, the “Fold Enhancement” value ([6]; Rifampicin with 6 μM C11 lariat ether) was 2 fold and the “Fold Enhancement” value ([6]; Tetracycline with 6 μM C11 lariat ether) was about 2 fold. For the same compound, the “MIC (μM) B. stubtilis” value [7] was 9 µM (≈ 5.14 µg/mL), the “MIC” value [1] was 24 µM (≈ 13.7 µg/mL) and the “MIC (μM) of amphiphile alone” value [1] was 24 µM. For the same compound, the “Fold Enhancement” value ([8]; Tetracycline with 8 μM C11 lariat ether) was 5 fold, the “Fold Enhancement” value ([8]; Tetracycline with 12 μM C11 lariat ether) was 10 fold and the “Fold Enhancement” value ([8]; Tetracycline with 16 μM C11 lariat ether) was 10 fold. The “Fold Enhancement” value ([8]; Tetracycline with 18 μM C11 lariat ether) was 10 fold, the IC50 [9] was 12 µM and the “MIC (μM) of amphiphile alone” value [10] was 24 µM. The “MIC (μM) S. cerevisiae” value [11] was 1.5 µM (≈ 0.856 µg/mL), the MIC [12] was 24 µM (≈ 13.7 µg/mL) and the “LD50 to HEK-293” value [13] was 22 µM.
